# What was measured:
# [1] = design: method as in Richard-Bildstein et al., 2020; settings: ref Richard-Bildstein et al., 2020; cited from earlier work
# [2] = tested on: CYP2C19; test: Incubation with recombinant human CYP2C19; format: in vitro ADME; settings: intersystem extrapolation scaling approach; 100 pmol/ml CYP, 10 μM, 60 min
# Procedure: (§1) ^14C-ACT-1004-1239 was incubated for 60 min with 100 pmol/ml of the respective recombinant CYP (CYP1A1, CYP1A2, CYP2B6, CYP2C8, CYP2C9, CYP2C19, CYP2D6, or CYP3A4) in 100 mM phosphate buffer (pH 7.4) at a final ^14C-ACT-1004-1239 concentration of 10 μM. The incubation was initiated by addition of the pre-warmed NADPH-regenerating system and terminated by the addition of one volume equivalent acetonitrile. The NADPH-regenerating system was prepared as described in Incubation With HLMs and CYP-Specific Inhibitors. The organic solvent concentration in all incubations was kept at 0.5% (v/v). Control incubations in the absence of the NADPH-regenerating system or CYP, as well as incubations with control bactosomes, were performed in parallel under otherwise identical conditions. The samples were centrifuged for 10 min at 20,800 g and 10°C to obtain the supernatant which was used for HPLC analysis (as described in Analytical Method for Metabolite Profiling). The resulting data were further used to determine their contribution to the metabolic clearance in vitro by applying the intersystem extrapolation scaling approach as described by [Chen et al. (2011)]. […]
# [3] = tested on: CYP2C8; test: Incubation with recombinant human CYP2C8; format: in vitro ADME; settings: intersystem extrapolation scaling approach; 100 pmol/ml CYP, 10 μM, 60 min
# Procedure: as §1
# [4] = Metabolite profiling in human plasma, urine and feces pools (HPLC-AMS); format: in vivo; settings: for Feces % of dose: based on geometric mean of total cumulative excretion in feces; for Urine % of dose: based on geometric mean of total cumulative excretion in urine
# Procedure: For each subject, plasma samples were pooled based on the Hamilton pooling scheme ([Hamilton et al., 1981]) with samples collected within 72 h. Thereafter, a single cross-subject plasma pool was prepared by using a constant proportion of each individual Hamilton pool. Proportional pooling was applied for urine and homogenized feces samples. […] A single cross-subject pool for both excreta was prepared by taking a sample representing 10% of each individual pool to obtain a representative pool of at least 95% of the total excreted ^14C across all subjects.
# Pooled plasma and feces samples were further purified by liquid-liquid extraction prior to HPLC analysis. The pooled plasma sample (4,000 μl) was extracted with 1200 μl acetonitrile:methanol (80:20, v/v) (Thermo Fisher Scientific, Waltham, MA, United States). After mixing for 1 min, the sample was centrifuged for 10 min at 3,750 rpm and 10°C […]. Thereafter, the supernatant was collected, dried, and aliquoted for analysis. These extraction steps were repeated two additional times with the remaining pellet to obtain a high extraction recovery. The homogenized feces sample (200 mg) was extracted by addition of 800 μl acetonitrile, followed by centrifugation for 5 min at 3,750 rpm and 4°C. The supernatant was collected and dried with nitrogen at 40°C. The remaining pellet was extracted by addition of 800 μl acetonitrile:water (1:1, v/v) followed by a drying process with nitrogen. The dried extract was reconstituted with acetonitrile:mobile phase A (see Analytical Method for Metabolite Profiling) (1:9, v/v) and vortexed for 5 min. […] Urine samples were directly used for analysis.
# Metabolite profiles were generated by using HPLC together with an AMS detector. The plasma extract (120 μl), the feces extract (10 μl), and urine (100 μl) were injected onto the HPLC (Agilent 1290, Agilent Technologies, Santa Clara, CA, United States) equipped with a binary pump G4220A (Agilent Technologies), an autosampler G4226A (Agilent Technologies), a column compartment G1316C (Agilent Technologies), and a fraction collector G1364C (Agilent Technologies). […] Mobile phases consisted of 20 mM ammonium formate adjusted to pH 9.5 with ammonium hydroxide (phase A) and a 7:2:1 (v/v/v) mixture of acetonitrile, methanol, and mobile phase A (phase B). […] Following HPLC analysis, pools of HPLC fractions were prepared by taking equivalent portions of consecutive individual fractions for analysis with AMS (SSAMS-250, National Electrostatics Corp., Middleton, WI, United States). The amounts of ^14C in each fraction and fraction pool were summed and compared to the solution injected onto the HPLC for the determination of profile recovery.
# [5] = ref Huynh et al., cited from earlier work
# [6] = Pharmacokinetics of total 14C-radioactivity in human plasma (microtracer, AMS); format: in vivo; settings: single oral 9.2 μg 14C-ACT-1004-1239 + 100 mg ACT-1004-1239
# [7] = tested on: CYP3A4; test: Incubation with recombinant human CYP3A4; format: in vitro ADME; settings: intersystem extrapolation scaling approach; 100 pmol/ml CYP, 10 μM, 60 min
# Procedure: as §1
# [8] = tested on: carboxylesterases (i.e., CES1b, CES1c, and CES2); test: Exploratory in vitro studies on enzymes catalyzing formation of M23; format: in vitro ADME; settings: Idorsia data on file
# [9] = Quantification of M38 in pooled human plasma using a synthesized reference; format: in vivo; settings: non-radiolabelled metabolite
# [10] = tested on: human liver microsomes (HLM); test: Incubation with HLMs and CYP-specific inhibitors; format: in vitro ADME; settings: 10 μM 14C-ACT-1004-1239, 1 μM ketoconazole (CYP3A4 inhibitor)
smiles,measurement,setting,value
O=C(N[C@H]1CCN(CC2CC2)C[C@@H]1C(=O)NC1(c2ncccn2)CC1)c1cc(-c2ccc(F)cc2F)on1 [ACT-1004-1239],absorption in rats,[1],rapidly absorbed
same,volume of distribution in rats,[1],in excess of total body water
same,contribution of CYP2C19 to M1 formation,[2],5.2%
same,contribution of CYP2C8 to M1 formation,[3],1.2%
same,Feces % of dose,[4],5.2%
same,Urine % of dose,[4],10.1%
same,safety and tolerability profile,"[5]; healthy humans, dose range 1–200 mg, single and multiple dose, 2021b, Huynh et al., 2021a",favorable safety and tolerability profiles
same,time to reach maximum plasma concentration [tmax],"[5]; male and female subjects, oral 1-200 mg, 2021a, Huynh et al., 2021b",1 to 3 h
same,accumulation at steady state,"[5]; multiple-dose, 2021a",almost no accumulation
same,time to steady-state conditions of systemic exposure,"[5]; multiple-dose, 2021a",≤ 3 days
same,absolute bioavailability,[5]; 2021b,53%
same,effect of food on the PK,[5]; 2021b,no relevant effect
same,volume of distribution,[5]; 2021b,183 L
same,plasma concentration of 14C-drug-related material after 72 h post-dose,[6],below the limit of quantification
same,contribution of CYP3A4 to total M1 formation (total turnover in vitro),[7],94%
O=C(N[C@H]1CCNC[C@@H]1C(=O)NC1(c2ncccn2)CC1)c1cc(-c2ccc(F)cc2F)on1 [M1],Urine + feces % of dose,[4]; 14C-radioactive dose excreted,25.1%
same,Feces % of dose,[4],23.7%
same,Urine % of dose,[4],1.4%
O=C(O)c1cc(-c2ccc(F)cc2F)on1 [M23],"Plasma % in sample (relative abundance, % of total radioactivity)","[4]; cross-subject plasma pool, samples within 72 h",21.1%
same,involvement of carboxylesterases in formation of M23,[8],excluded the involvement of carboxylesterases
N[C@H]1CCN(CC2CC2)C[C@@H]1C(=O)NC1(c2ncccn2)CC1 [M38],presence in pooled human plasma,[9],negligible
CC(=O)N1CCN(c2ccc(OCC3COC(Cn4ccnc4)(c4ccc(Cl)cc4Cl)O3)cc2)CC1 (stereo not shown) [ketoconazole],formation of M1 in presence of inhibitor,[10],completely abolished

# Source: article PMC9006992 (Frontiers in Pharmacology, 2022)
